Source: patent publication US20190124918A1, “BIOFILM FORMATION INHIBITOR AND BIOFILM FORMATION INHIBITING COMPOSITION” (KAO CORPORATION, priority 2016, published 2019)

Tests used:
[1] = test system: Pseudomonas PAO1 strain (ATCC 15692); experiment: Growth of test microbe (turbidity OD600), 96-well microplate culture; assay type: cell-based; conditions: for inhibition at 101 ppm: final concentration 101 ppm; for inhibition at 203 ppm: final concentration 203 ppm; for inhibition at 405 ppm: final concentration 405 ppm; for inhibition at 608 ppm: final concentration 608 ppm; for inhibition at 709 ppm: final concentration 709 ppm; for inhibition at 810 ppm: final concentration 810 ppm
Experimental: (§1) Pseudomonas PAO1 strain (ATCC 15692) was subjected to stationary culture performed in LB culture medium (Lysogeny Broth; manufactured by Becton Dickinson) at 37° C. for 24 hours. The turbidity (OD600) of the culture solution was measured. The culture solution was diluted with Mueller Hinton Broth (BBL made) to prepare a suspension (15 mL) having a turbidity (OD600) of 1/10^6.
To each of the wells of a 96-well microplate (351172; manufactured by Japan Becton Dickinson), 6 μL of DMSO (Tokyo Chemical Industry Co. Ltd) and an ethanol solution (1 μL, 3 μL or 5 μL) of a test compound were added. After that, the microplate was allowed to stand still at room temperature for 5 hours to evaporate ethanol. The suspension of Pseudomonas microbe prepared in the above step 1) was added in an amount of 145 μL per well and culture was initiated. As the test compound, 2-methylhydroquinone (Sigma Aldrich) and p-toluquinone (Tokyo Kasei) were used. As a reference compound, sodium hypochlorite (manufactured by Wako Pure Chemical Industries Ltd.) was used. As a control, an ethanol solvent (EtOH control) alone was used. The concentration of the test compound in the ethanol solution is 1,000 ppm or 10,000 ppm and the final concentration of the test compound in the culture solution was about from 7 to 333 ppm.
(§2) After the 96-well microplate was subjected to stationary culture performed at 30° C. for 24 hours, turbidity (OD600) was measured to check growth. Subsequently, individual wells were stained with 0.1% crystal violet and thoroughly washed twice with physiological saline. To each well, 200 μL of ethanol was added and the absorbance (OD570) was measured to obtain the amount of the biofilm formed.
Compounds listed in Table 3 were each added to a test microbe and culture was conducted by the same procedure as in Test Example 1 and the amount of growth (OD600) and the amount of biofilm formed (OD570) were measured. For compounds a, b, c, f, h, i, J and k, 20 mM ethanol solutions were prepared; whereas for compounds d, e, g, 5 mM ethanol solutions were prepared. The solutions were each added to a 96-well microplate in an amount of 1 to 8 μL and evaluation was made. The final concentrations of the individual compounds are described in Table 3.
(§3) Growth inhibition rates relative to the control (ethanol alone) were calculated based on OD600 values measured and in accordance with the following expression. In addition, biofilm (BF) formation inhibition rates relative to the control (ethanol alone) were calculated based on OD570 values and in accordance with the following expression:
Growth inhibition (%)=(1−(compound addition group OD600/control group OD600))×100
(§4) As a control, an ethanol solvent alone was used (EtOH control). The concentrations of test compounds in the ethanol solution were as follows: test compound 1: 20 mM, test compounds 2 to 7: 100 mM. To each of the wells of a 96-well microplate (351172; manufactured by Japan Becton Dickinson), 6 μL of DMSO (Tokyo Kasei) and an ethanol solution of each test compound (1 to 8 μL) were added and then the microplates were allowed to stand still at room temperature for 5 hours to evaporate ethanol. A suspension solution of a Pseudomonas microbe prepared in the same procedure as in Test Example 1, 1) was added in an amount of 145 μL per well and culture was initiated.
as §2, with “culture” for “culture performed”, “formed. The growth inhibition rate and biofilm (BF) formation inhibition rate were calculated based on OD600 and OD570 values measured and in accordance with the expressions used in Test Example 2.” for “formed.”

[2] = test system: Pseudomonas PAO1 strain (ATCC 15692); experiment: Amount of biofilm formed (crystal violet, OD570), 96-well microplate culture; assay type: cell-based; conditions: for inhibition at 101 ppm: final concentration 101 ppm; for inhibition at 203 ppm: final concentration 203 ppm; for inhibition at 405 ppm: final concentration 405 ppm; for inhibition at 608 ppm: final concentration 608 ppm; for inhibition at 709 ppm: final concentration 709 ppm; for inhibition at 810 ppm: final concentration 810 ppm
Experimental: as §1, with “1/10^6. […]” for “1/10^6.”
as §3
BF inhibition (%)={1−(compound addition group OD570/control group OD570)}×100
as §4
as §2, with “culture” for “culture performed”, “formed. The growth inhibition rate and biofilm (BF) formation inhibition rate were calculated based on OD600 and OD570 values measured and in accordance with the expressions used in Test Example 2.” for “formed.”

[3] = Test Example 3, final concentration 83 ppm
[4] = Test Example 3, final concentration 165 ppm
[5] = Test Example 3, final concentration 331 ppm
[6] = Test Example 3, final concentration 496 ppm
[7] = Test Example 3, final concentration 579 ppm
[8] = Test Example 3, final concentration 661 ppm
[9] = Pseudomonas, read-out: Growth inhibition (%)
[10] = Pseudomonas, read-out: BF inhibition (%)
[11] = Pseudomonas, Test Example 3, read-out: BF inhibition (%)
[12] = final concentration 7 ppm, EtOH control 0.5913
[13] = final concentration 20 ppm, EtOH control 0.6346
[14] = final concentration 33 ppm, EtOH control 0.668
[15] = final concentration 67 ppm, EtOH control 0.628
[16] = final concentration 200 ppm, EtOH control 0.6045
[17] = final concentration 333 ppm, EtOH control 0.6088
[18] = final concentration 7 ppm, EtOH control 0.9163
[19] = final concentration 20 ppm, EtOH control 0.9564
[20] = final concentration 33 ppm, EtOH control 0.8974
[21] = final concentration 67 ppm, EtOH control 0.8853
[22] = final concentration 200 ppm, EtOH control 0.9248
[23] = final concentration 333 ppm, EtOH control 0.9562
[24] = high concentration range of 200 ppm or more

Compound: Cc1cc(O)cc(O)c1 [Compound 2, 5-Methylresocinol]
- Growth inhibition (%) [1, 3]: — (No growth inhibition or no BF inhibition)
- Growth inhibition (%) [1, 4]: 10.4%
- Growth inhibition (%) [1, 5]: — (No growth inhibition or no BF inhibition)
- Growth inhibition (%) [1, 6]: — (No growth inhibition or no BF inhibition)
- Growth inhibition (%) [1, 7]: 17.6%
- Growth inhibition (%) [1, 8]: — (No growth inhibition or no BF inhibition)
- BF inhibition (%) [2, 3]: — (No growth inhibition or no BF inhibition)
- BF inhibition (%) [2, 4]: — (No growth inhibition or no BF inhibition)
- BF inhibition (%) [2, 5]: — (No growth inhibition or no BF inhibition)
- BF inhibition (%) [2, 6]: 57.5%
- BF inhibition (%) [2, 7]: 57.7%
- BF inhibition (%) [2, 8]: 70.2%

Compound: CCCCCc1cc(O)cc(O)c1 [Compound 3, 5-Pentylresorcinol]
- inhibition at 120 ppm [1, 9]: 7.7%
- inhibition at 240 ppm [1, 9]: < 0%
- inhibition at 480 ppm [1, 9]: < 0%
- inhibition at 720 ppm [1, 9]: < 0%
- inhibition at 840 ppm [1, 9]: 17%
- inhibition at 960 ppm [1, 9]: 4.9%
- inhibition at 120 ppm [2, 10]: 0.9%
- inhibition at 240 ppm [2, 10]: < 0%
- inhibition at 480 ppm [2, 10]: 50.6%
- inhibition at 720 ppm [2, 10]: 42.3%
- inhibition at 840 ppm [2, 10]: 85%
- inhibition at 960 ppm [2, 10]: 86.1%

Compound: CCCc1c(O)cccc1O [Compound 4, 2-Propylresorcinol]
- inhibition at 101 ppm ([1]; Pseudomonas, Test Example 3): < 0%
- inhibition at 203 ppm ([1]; Pseudomonas, Test Example 3): 20.5%
- inhibition at 405 ppm ([1]; Pseudomonas, Test Example 3): < 0%
- inhibition at 608 ppm ([1]; Pseudomonas, Test Example 3): 6.8%
- inhibition at 709 ppm ([1]; Pseudomonas, Test Example 3): 16.4%
- inhibition at 810 ppm ([1]; Pseudomonas, Test Example 3): < 0%
- inhibition at 101 ppm [2, 11]: < 0%
- inhibition at 203 ppm [2, 11]: < 0%
- inhibition at 405 ppm [2, 11]: < 0%
- inhibition at 608 ppm [2, 11]: 7.9%
- inhibition at 709 ppm [2, 11]: 21.7%
- inhibition at 810 ppm [2, 11]: 14.1%

Compound: Cc1cc(O)c(C)c(O)c1 [Compound 5, 2,5-Dimethylresorcinol]
- inhibition at 92 ppm [1, 9]: < 0%
- inhibition at 184 ppm [1, 9]: < 0%
- inhibition at 368 ppm [1, 9]: < 0%
- inhibition at 552 ppm [1, 9]: 9.3%
- inhibition at 644 ppm [1, 9]: 14%
- inhibition at 736 ppm [1, 9]: 11.1%
- inhibition at 92 ppm [2, 10]: < 0%
- inhibition at 184 ppm [2, 10]: 0.4%
- inhibition at 368 ppm [2, 10]: < 0%
- inhibition at 552 ppm [2, 10]: 10.4%
- inhibition at 644 ppm [2, 10]: 20.4%
- inhibition at 736 ppm [2, 10]: 55%

Compound: Cc1c(O)cccc1O [Compound 6, 2-Methylresorcinol]
- inhibition at 83 ppm ([1]; Pseudomonas, Test Example 3, final concentration 83 ppm): < 0%
- inhibition at 165 ppm ([1]; Pseudomonas, Test Example 3, final concentration 165 ppm): 5.2%
- inhibition at 331 ppm ([1]; Pseudomonas, Test Example 3, final concentration 331 ppm): < 0%
- inhibition at 496 ppm ([1]; Pseudomonas, Test Example 3, final concentration 496 ppm): 12.3%
- inhibition at 579 ppm ([1]; Pseudomonas, Test Example 3, final concentration 579 ppm): 20%
- inhibition at 661 ppm ([1]; Pseudomonas, Test Example 3, final concentration 661 ppm): 13.3%
- inhibition at 83 ppm ([2]; Pseudomonas, Test Example 3, final concentration 83 ppm, read-out: BF inhibition (%)): < 0%
- inhibition at 165 ppm ([2]; Pseudomonas, Test Example 3, final concentration 165 ppm, read-out: BF inhibition (%)): < 0%
- inhibition at 331 ppm ([2]; Pseudomonas, Test Example 3, final concentration 331 ppm, read-out: BF inhibition (%)): < 0%
- inhibition at 496 ppm ([2]; Pseudomonas, Test Example 3, final concentration 496 ppm, read-out: BF inhibition (%)): 53%
- inhibition at 579 ppm ([2]; Pseudomonas, Test Example 3, final concentration 579 ppm, read-out: BF inhibition (%)): 52.2%
- inhibition at 661 ppm ([2]; Pseudomonas, Test Example 3, final concentration 661 ppm, read-out: BF inhibition (%)): 56.3%

Compound: CC(C)c1ccc(O)cc1O [Compound 7, 4-Isopropylresorcinol]
- inhibition at 101 ppm ([1]; Pseudomonas, Test Example 3): < 0%
- inhibition at 203 ppm ([1]; Pseudomonas, Test Example 3): 5.7%
- inhibition at 405 ppm ([1]; Pseudomonas, Test Example 3): < 0%
- inhibition at 608 ppm ([1]; Pseudomonas, Test Example 3): 4.8%
- inhibition at 709 ppm ([1]; Pseudomonas, Test Example 3): 19.5%
- inhibition at 810 ppm ([1]; Pseudomonas, Test Example 3): 40.2%
- inhibition at 101 ppm [2, 11]: < 0%
- inhibition at 203 ppm [2, 11]: < 0%
- inhibition at 405 ppm [2, 11]: < 0%
- inhibition at 608 ppm [2, 11]: 29.1%
- inhibition at 709 ppm [2, 11]: 29.3%
- inhibition at 810 ppm [2, 11]: 21%

Compound: OCl [Sodium hypochlorite, sodium hypochlorite, reference compound]
- microbial growth (in words) ([1]; Test Example 1, 7 to 333 ppm): inhibited
- Growth OD600 [1, 12]: 0.5938
- Growth OD600 [1, 13]: 0.4966
- Growth OD600 [1, 14]: 0.4445
- Growth OD600 [1, 15]: 0.4585
- Growth OD600 [1, 16]: 0.3016
- Growth OD600 [1, 17]: 0.2758
- biofilm formation (in words) ([2]; Test Example 1, 7 to 333 ppm): inhibited
- The amount of the biofilm formed OD570 [2, 18]: 0.9918
- The amount of the biofilm formed OD570 [2, 19]: 0.9042
- The amount of the biofilm formed OD570 [2, 20]: 0.7879
- The amount of the biofilm formed OD570 [2, 21]: 0.7277
- The amount of the biofilm formed OD570 [2, 22]: 0.7579
- The amount of the biofilm formed OD570 [2, 23]: 0.4967

Compound: Cc1cc(O)ccc1O [b, 2-Methylhydroquinone]
- inhibition at 16 ppm ([1]; Pseudomonas, final concentration 16 ppm): 31.2%
- inhibition at 33 ppm ([1]; Pseudomonas, final concentration 33 ppm): < 0%
- inhibition at 65 ppm ([1]; Pseudomonas, final concentration 65 ppm): 4%
- inhibition at 98 ppm ([1]; Pseudomonas, final concentration 98 ppm): < 0%
- inhibition at 114 ppm ([1]; Pseudomonas, final concentration 114 ppm): 1.5%
- inhibition at 130 ppm ([1]; Pseudomonas, final concentration 130 ppm): 0%
- Growth OD600 [1, 12]: 0.6114
- Growth OD600 [1, 13]: 0.6276
- Growth OD600 [1, 14]: 0.6291
- Growth OD600 [1, 15]: 0.471
- Growth OD600 [1, 16]: 0.3373
- Growth OD600 [1, 17]: 0.4302
- microbial growth (in words) [1, 24]: inhibited
- inhibition at 16 ppm ([2]; Pseudomonas, final concentration 16 ppm, read-out: BF inhibition (%)): 51.4%
- inhibition at 33 ppm ([2]; Pseudomonas, final concentration 33 ppm, read-out: BF inhibition (%)): 42.5%
- inhibition at 65 ppm ([2]; Pseudomonas, final concentration 65 ppm, read-out: BF inhibition (%)): 76.5%
- inhibition at 98 ppm ([2]; Pseudomonas, final concentration 98 ppm, read-out: BF inhibition (%)): 87.3%
- inhibition at 114 ppm ([2]; Pseudomonas, final concentration 114 ppm, read-out: BF inhibition (%)): 95.2%
- inhibition at 130 ppm ([2]; Pseudomonas, final concentration 130 ppm, read-out: BF inhibition (%)): 96.2%
- The amount of the biofilm formed OD570 [2, 18]: 0.7615
- The amount of the biofilm formed OD570 [2, 19]: 0.7848
- The amount of the biofilm formed OD570 [2, 20]: 0.739
- The amount of the biofilm formed OD570 [2, 21]: 0.5875
- The amount of the biofilm formed OD570 [2, 22]: 0.0566
- The amount of the biofilm formed OD570 [2, 23]: 0.0744
- biofilm formation (in words) [2, 24]: inhibited
- biofilm formation (in words) ([2]; low concentration range of less than 200 ppm): inhibited
